Patent US20230278984A1 (Global Blood Therapeutics, Inc., priority 2020, published 2023)

Target: T1, Human pyruvate kinase R (PKR) (Homo sapiens, UniProt P30613)
T1 construct: Human pyruvate kinase R (PKR), residues 14-574; 6x-His (N, cleaved yes); 8x-Arg (N, cleaved yes); SUMO (N, cleaved yes); host or cells: E. coli
Experiment: Biochemical assay for activation of pyruvate kinase R (Kinase-Glo luminescence measurement of ATP generation)
Conditions: for AC50: PKR biochemical assay, 0.1 nM PKR, 0.3 mM ADP, 2 mM FBP, 0.1 mM PEP; for Emax: maximal activation level relative to the activation level achieved by the literature compound AG-348 @ 10 μM
Protocol: Human pyruvate kinase R (PKR), residues 14-574, and human pyruvate kinase M2, residues 1-531, were cloned into expression plasmids and obtained from ATUM Bio (Newark, Calif.). Proteins were translated as fusions with 6×-His, 8×-Arg, and SUMO at the N-terminus. A third construct of human PKR was truncated, residues 50-574, and similarly cloned for use in crystallography experiments. All proteins were cloned, expressed in E. coli, and purified using similar protocols. Cells were grown at 30° C. in Luria-Bertani broth supplemented with 0.4% glucose to OD600=0.8 and induced with 0.4 mM IPTG at 16° C. for 18 hours. Cells were harvested by centrifugation, resuspended in 50 mM potassium phosphate pH 8.0, 500 mM NaCl, 25 mM imidazole pH 8.0, and 3 mM (3-mercaptoethanol. Cells were lysed using a LM20 microfluidizer from Microfluidics (Westwood, Mass.). The crude lysate was immediately supplemented with 0.2 mM phenylmethylsulfonyl fluoride (PMSF) and centrifuged at 20,000 g for 20 minutes. The soluble fraction was subsequently incubated with 2 mL Ni-NTA (GE Healthcare) per 1,000 ODs for 1 hour at 4° C. Following incubation with the Ni-NTA resin, lysate was removed by pelleting resin at 2,500 g for 3 minutes and washed 3 times with 9 bed volumes of 50 mM potassium phosphate pH 8.0, 500 mM NaCl, 25 mM imidazole, and 3 mM 3-mercaptoethanol. Following the batch wash Ni-NTA resin was loaded onto a gravity column and His-tagged protein was eluted with 6 bed volumes of 10 mM Tris/HCl pH 8.0, 200 mM NaCl, 500 mM imidazole, and 3 mM (3-mercaptoethanol. Eluted protein was dialyzed overnight against 10 mM Tris/HCl pH 8.0, 200 mM NaCl, and 1 mM DTT and the 6×-His-8×-Arg-SUMO-tag was cleaved using a 20:1 molar ratio of protein:3C protease. The protein was purified by anion exchange chromatography on a HiTrapQ or MonoQ 10/100 GL column (GE Healthcare) via a linear NaCl gradient and twice by size exclusion chromatography using a Superdex S200 26/60 column (GE Healthcare) run in 10 mM Tris/HCl pH 8.0, 200 mM NaCl, 10 mM MgCl2, 1 mM DTT. Proteins were concentrated to −12 mg/mL for crystallization and flash frozen for storage.
Biochemical Assay for Activation of Pyruvate Kinase R
Activation of pyruvate kinase R (PKR) and pyruvate kinase M2 (PKM2) were measured using a luminescence based measurement of ATP generation and the Kinase-Glo luminescent kinase reagent kit.

T1 sequence (P30613 14-574): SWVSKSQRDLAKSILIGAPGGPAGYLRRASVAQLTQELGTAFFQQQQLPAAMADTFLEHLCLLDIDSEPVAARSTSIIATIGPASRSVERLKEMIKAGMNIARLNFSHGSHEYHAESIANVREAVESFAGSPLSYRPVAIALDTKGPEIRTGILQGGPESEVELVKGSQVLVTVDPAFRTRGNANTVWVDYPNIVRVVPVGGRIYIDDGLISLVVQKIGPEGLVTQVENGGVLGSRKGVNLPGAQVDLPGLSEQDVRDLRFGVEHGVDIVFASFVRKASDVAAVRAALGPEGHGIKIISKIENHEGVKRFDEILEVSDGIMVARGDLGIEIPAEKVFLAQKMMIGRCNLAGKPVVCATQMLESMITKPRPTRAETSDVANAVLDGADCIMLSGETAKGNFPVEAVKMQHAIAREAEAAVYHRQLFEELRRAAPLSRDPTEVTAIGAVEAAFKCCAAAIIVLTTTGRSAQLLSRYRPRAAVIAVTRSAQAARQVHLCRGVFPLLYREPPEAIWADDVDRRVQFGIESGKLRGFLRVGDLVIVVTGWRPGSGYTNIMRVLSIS

Compound	AC50 [nM]	Emax [%]
O=C(NCc1nnnn1-c1ccc(Cl)cc1)NCc1nnnn1-c1ccc(Cl)cc1 [Compound 1, 1,3-bis({[1-(4-chlorophenyl)-1H-1,2,3,4-tetrazol-5-yl]methyl})urea]	189	96
O=C(NCc1nnnn1-c1cccc(Cl)c1)NCc1nnnn1-c1cccc(Cl)c1 [Compound 2, 1,3-bis({[1-(3-chlorophenyl)-1H-1,2,3,4-tetrazol-5-yl]methyl})urea]	530	69
O=C1N(Cc2nnnn2-c2ccc(Cl)cc2)CCCN1Cc1nnnn1-c1ccc(Cl)cc1 [Compound 3, 1,3-bis({[1-(4-chlorophenyl)-1H-1,2,3,4-tetrazol-5-yl]methyl})-1,3-diazinan-2-one]	6000	53
O=C1N(Cc2nnnn2-c2ccc(Cl)c(F)c2)CCCN1Cc1nnnn1-c1ccc(Cl)c(F)c1 [Compound 4, 1,3-bis({[1-(4-chloro-3-fluorophenyl)-1H-1,2,3,4-tetrazol-5-yl]methyl})-1,3-diazinan-2-one]	1200	80
O=C(NCc1ncnn1-c1ccc(Cl)c(F)c1)NCc1ncnn1C1CCOCC1 [Compound 5, 3-{[1-(4-chloro-3-fluorophenyl)-1H-1,2,4-triazol-5-yl]methyl}-1-{[1-(oxan-4-yl)-1H-1,2,4-triazol-5-yl]methyl}urea]	420	47
O=C1N(Cc2ncnn2-c2ccc(Cl)c(F)c2)CCCN1Cc1ncnn1-c1ccc(Cl)c(F)c1 [Compound 6, 1,3-bis({[1-(4-chloro-3-fluorophenyl)-1H-1,2,4-triazol-5-yl]methyl})-1,3-diazinan-2-one]	5.4	33
O=C(NCc1ncnn1CC1CCOCC1)NCc1ncnn1-c1ccc(Cl)c(F)c1 [Compound 7, 3-{[1-(4-chloro-3-fluorophenyl)-1H-1,2,4-triazol-5-yl]methyl}-1-({1-[(oxan-4-yl)methyl]-1H-1,2,4-triazol-5-yl}methyl)urea]	44	46
CCN(Cc1ncnn1-c1ccc(Cl)c(F)c1)C(=O)NCc1ncnn1CC1CCOCC1 [Compound 8, 3-{[1-(4-chloro-3-fluorophenyl)-1H-1,2,4-triazol-5-yl]methyl}-3-ethyl-1-({1-[(oxan-4-yl)methyl]-1H-1,2,4-triazol-5-yl}methyl)urea]	320	59
CCN(Cc1ncnn1CC1CCOCC1)C(=O)NCc1ncnn1-c1ccc(Cl)c(F)c1 [Compound 9, 3-{[1-(4-chloro-3-fluorophenyl)-1H-1,2,4-triazol-5-yl]methyl}-1-ethyl-1-({1-[(oxan-4-yl)methyl]-1H-1,2,4-triazol-5-yl}methyl)urea]	120	64
Cc1nc(CNC(=O)NCc2ncnn2CC2CCOCC2)n(-c2ccc(Cl)c(F)c2)n1 [Compound 10, 3-{[1-(4-chloro-3-fluorophenyl)-3-methyl-1H-1,2,4-triazol-5-yl]methyl}-1-({1-[(oxan-4-yl)methyl]-1H-1,2,4-triazol-5-yl}methyl)urea]	80	74
CC1(Cn2ncnc2CNC(=O)NCc2ncnn2-c2ccc(Cl)c(F)c2)CCOCC1 [Compound 11, 3-{[1-(4-chloro-3-fluorophenyl)-1H-1,2,4-triazol-5-yl]methyl}-1-({1-[(4-methyloxan-4-yl)methyl]-1H-1,2,4-triazol-5-yl}methyl)urea]	88	49
Cc1nc(CNC(=O)NCc2ncnn2CC2(C)CCOCC2)n(-c2ccc(Cl)c(F)c2)n1 [Compound 12, 3-{[1-(4-chloro-3-fluorophenyl)-3-methyl-1H-1,2,4-triazol-5-yl]methyl}-1-({1-[(4-methyloxan-4-yl)methyl]-1H-1,2,4-triazol-5-yl}methyl)urea]	180	89
CC1(C)CC(Cn2ncnc2CNC(=O)NCc2ncnn2-c2ccc(Cl)c(F)c2)CCO1 (centres unmarked) [Compound 13, 3-{[1-(4-chloro-3-fluorophenyl)-1H-1,2,4-triazol-5-yl]methyl}-1-({1-[(2,2-dimethyloxan-4-yl)methyl]-1H-1,2,4-triazol-5-yl}methyl)urea]	1000	55
Cc1nc(CNC(=O)NCc2ncnn2CC2CCOC(C)(C)C2)n(-c2ccc(Cl)c(F)c2)n1 (centres unmarked) [Compound 14, 3-{[1-(4-chloro-3-fluorophenyl)-3-methyl-1H-1,2,4-triazol-5-yl]methyl}-1-({1-[(2,2-dimethyloxan-4-yl)methyl]-1H-1,2,4-triazol-5-yl}methyl)urea]	1400	84
O=C(NCc1ncnn1CC1CCOCC1)NCc1ncnn1-c1ccc2cccnc2c1 [Compound 15, 3-({1-[(oxan-4-yl)methyl]-1H-1,2,4-triazol-5-yl}methyl)-1-{[1-(quinolin-7-yl)-1H-1,2,4-triazol-5-yl]methyl}urea]	310	57
Cc1nc(CNC(=O)NCc2ncnn2CC2CCCCC2)n(-c2ccc(Cl)c(F)c2)n1 [Compound 16, 3-{[1-(4-chloro-3-fluorophenyl)-3-methyl-1H-1,2,4-triazol-5-yl]methyl}-1-{[1-(cyclohexylmethyl)-1H-1,2,4-triazol-5-yl]methyl}urea]	55	93
Cc1nc(CNC(=O)NCc2ncnn2-c2ccc3scnc3c2)n(-c2ccc(Cl)c(F)c2)n1 [Compound 17, 1-{[1-(1,3-benzothiazol-5-yl)-1H-1,2,4-triazol-5-yl]methyl}-3-{[1-(4-chloro-3-fluorophenyl)-3-methyl-1H-1,2,4-triazol-5-yl]methyl}urea]	13	82
Cc1nc(CNC(=O)NCc2ncnn2Cc2ccccc2)n(-c2ccc(Cl)c(F)c2)n1 [Compound 18, 1-[(1-benzyl-1H-1,2,4-triazol-5-yl)methyl]-3-{[1-(4-chloro-3-fluorophenyl)-3-methyl-1H-1,2,4-triazol-5-yl]methyl}urea]	37	85
Cc1nc(CNC(=O)NCc2ncnn2Cc2ccc(F)cc2)n(-c2ccc(Cl)c(F)c2)n1 [Compound 20, 3-{[1-(4-chloro-3-fluorophenyl)-3-methyl-1H-1,2,4-triazol-5-yl]methyl}-1-({1-[(4-fluorophenyl)methyl]-1H-1,2,4-triazol-5-yl}methyl)urea]	51	97
Cc1nc(CNC(=O)N(C)Cc2ncnn2-c2ccc3scnc3c2)n(-c2ccc(Cl)c(F)c2)n1 [Compound 22, 1-{[1-(1,3-benzothiazol-5-yl)-1H-1,2,4-triazol-5-yl]methyl}-3-{[1-(4-chloro-3-fluorophenyl)-3-methyl-1H-1,2,4-triazol-5-yl]methyl}-1-methylurea]	33	83
Cc1nc(CNC(=O)NCc2ncnn2CC2(O)CCCCC2)n(-c2ccc(Cl)c(F)c2)n1 [Compound 23, 3-{[1-(4-chloro-3-fluorophenyl)-3-methyl-1H-1,2,4-triazol-5-yl]methyl}-1-({1-[(1-hydroxycyclohexyl)methyl]-1H-1,2,4-triazol-5-yl}methyl)urea]	230	72
Cc1nc(CNC(=O)NCc2ncnn2-c2ccc3c(c2)OCC3)n(-c2ccc(Cl)c(F)c2)n1 [Compound 24, 3-{[1-(4-chloro-3-fluorophenyl)-3-methyl-1H-1,2,4-triazol-5-yl]methyl}-1-{[1-(2,3-dihydro-1-benzofuran-6-yl)-1H-1,2,4-triazol-5-yl]methyl}urea]	24	75
O=C(NCc1nnnn1-c1ccc(Cl)cc1F)NCc1nnnn1-c1ccc(Cl)cc1F [Compound 25, 1,3-bis({[1-(4-chloro-2-fluorophenyl)-1H-1,2,3,4-tetrazol-5-yl]methyl})urea]	2500	80
CN(Cc1nnnn1-c1ccc(Cl)c(F)c1)C(=O)NCc1nnnn1-c1ccc(Cl)c(F)c1 [Compound 26, 1,3-bis({[1-(4-chloro-3-fluorophenyl)-1H-1,2,3,4-tetrazol-5-yl]methyl})-1-methylurea]	73	93
CN(Cc1ncnn1-c1ccc(Cl)c(F)c1)C(=O)NCc1ncnn1-c1ccc(Cl)c(F)c1 [Compound 27, 1,3-bis({[1-(4-chloro-3-fluorophenyl)-1H-1,2,4-triazol-5-yl]methyl})-1-methylurea]	5.4	33
